Results reported in patent US11439707B2, “Hypocrellin derivative substituted both in a peri-position and in 2-position by amino, preparation method, and application thereof” (priority 2017, dated 2022).

Assays:
[1] = absorption spectrum (maximum absorption wavelength, molar extinction coefficient); assay type: physicochemical
[2] = singlet oxygen efficiency test, reference rose bengal; assay type: physicochemical

For `COCCOCCC(=O)OC1CCC(Nc2c(NC3CCC(OC(=O)CCOCCOC)C3)c3c(=O)cc(OC)c4c5c(OC)cc(=O)c6c(O)c(OC)c7c(c(c2C=C(C)C7C(C)=O)c34)c65)C1` (stereo not drawn) [HB-20a-PEG1], the maximum absorption wavelength [1] was 624 nm, the molar extinction coefficient [1] was 31,000 M^−1cm^−1 and the singlet oxygen yield [2] was 30%.

With `COc1c(O)c2c(=O)cc(OC)c3c4c(OC)cc(=O)c5c(NC6CCC(O)C6)c(NC6CCC(O)C6)c6c(c(c1C(C(C)=O)C(C)=C6)c23)c54` (stereo not drawn) [HB-20a] the maximum absorption wavelength [1] was 624 nm, the molar extinction coefficient [1] was 24,500 M^−1cm^−1 and the singlet oxygen yield [2] was 20%.

For `COCCOCCOCCOCCOCCOCCOCCC(=O)OC1CCC(Nc2c(O)c3c(=O)cc(OC)c4c5c(OC)cc(=O)c6c(NC7CCC(OC(=O)CCOCCOCCOCCOCCOCCOCCOC)C7)c(OC)c7c(c(c2C=C(C)C7C(C)=O)c34)c65)C1` (stereo not drawn) [HB-20b-PEG6], the maximum absorption wavelength [1] was 624 nm, the molar extinction coefficient [1] was 31,000 M^−1cm^−1 and the singlet oxygen yield [2] was 28%.

With `COCCOCCOCCOCCOCCOCCOCCOCCOCCOCCOCCOCCOCCC(=O)OC1CCC(Nc2c3c4c5c(c(OC)c(=O)c6c(O)cc(OC)c(c7c(OC)cc(NC8CCC(OC(=O)CCOCCOCCOCCOCCOCCOCCOCCOCCOCCOCCOCCOCCOC)C8)c(c2=O)c74)c65)C(C(C)=O)C(C)=C3)C1` (stereo not drawn) [HB-20c-PEG12] the maximum absorption wavelength [1] was 632 nm, the molar extinction coefficient [1] was 32,500 M^−1cm^−1 and the singlet oxygen yield [2] was 34%.

For `COCCOCCOCCOCCOCCOCCOCCC(=O)OC1CCC(Nc2c3c4c5c(c(OC)c(=O)c6c(NC7CCC(OC(=O)CCOCCOCCOCCOCCOCCOCCOC)C7)cc(OC)c(c7c(OC)cc(O)c(c2=O)c74)c65)C(C(C)=O)C(C)=C3)C1` (stereo not drawn) [HB-20d-PEG6], the maximum absorption wavelength [1] was 630 nm, the molar extinction coefficient [1] was 30,500 M^−1cm^−1 and the singlet oxygen yield [2] was 32%.

In the case of `COCCOCCOC(=O)C1CCCC1Nc1c(NC2CCCC2C(=O)OCCOCCOC)c2c(=O)cc(OC)c3c4c(OC)cc(=O)c5c(O)c(OC)c6c(c(c1C=C(C)C6C(C)=O)c23)c54` (stereo not drawn) [HB-21a-PEG1], the maximum absorption wavelength [1] is reported as 624 nm, the molar extinction coefficient [1] is reported as 31,500 M^−1cm^−1 and the singlet oxygen yield [2] is reported as 30%.

In the case of `COc1c(O)c2c(=O)cc(OC)c3c4c(OC)cc(=O)c5c(NC6CCCC6C(=O)O)c(NC6CCCC6C(=O)O)c6c(c(c1C(C(C)=O)C(C)=C6)c23)c54` (stereo not drawn) [HB-21a], the maximum absorption wavelength [1] is reported as 620 nm, the molar extinction coefficient [1] is reported as 23,500 M^−1cm^−1 and the singlet oxygen yield [2] is reported as 20%.

In the case of `COc1c(O)c2c(=O)cc(OC)c3c4c(OC)cc(=O)c5c(NC(C(=O)O)C(C)C)c(NC(C(=O)O)C(C)C)c6c(c(c1C(C(C)=O)C(C)=C6)c23)c54` (stereo not drawn) [HB-22a], the maximum absorption wavelength [1] is reported as 621 nm, the molar extinction coefficient [1] is reported as 21,000 M^−1cm^−1 and the singlet oxygen yield [2] is reported as 18%.

For `COc1c(NC(C(=O)O)C(C)C)c2c(=O)cc(OC)c3c4c(OC)cc(=O)c5c(O)c(NC(C(=O)O)C(C)C)c6c(c(c1C(C(C)=O)C(C)=C6)c23)c54` (stereo not drawn) [HB-22b], the maximum absorption wavelength [1] was 618 nm, the molar extinction coefficient [1] was 21,000 M^−1cm^−1 and the singlet oxygen yield [2] was 19%.

With `COc1c2c3c4c(c(NC(C(=O)O)C(C)C)c(=O)c5c(NC(C(=O)O)C(C)C)cc(OC)c(c6c(OC)cc(O)c(c1=O)c63)c54)C=C(C)C2C(C)=O` (stereo not drawn) [HB-22c] the maximum absorption wavelength [1] was 620 nm, the molar extinction coefficient [1] was 21,500 M^−1cm^−1 and the singlet oxygen yield [2] was 22%.

With `COc1c2c3c4c(c(NC(C(=O)O)C(C)C)c(=O)c5c(O)cc(OC)c(c6c(OC)cc(NC(C(=O)O)C(C)C)c(c1=O)c63)c54)C=C(C)C2C(C)=O` (stereo not drawn) [HB-22d] the maximum absorption wavelength [1] was 625 nm, the molar extinction coefficient [1] was 21,500 M^−1cm^−1 and the singlet oxygen yield [2] was 22%.

In the case of `COc1c(O)c2c(=O)cc(OC)c3c4c(OC)cc(=O)c5c(NC(CO)C(=O)O)c(NC(CO)C(=O)O)c6c(c(c1C(C(C)=O)C(C)=C6)c23)c54` (stereo not drawn) [HB-23a], the maximum absorption wavelength [1] is reported as 625 nm, the molar extinction coefficient [1] is reported as 21,500 M^−1cm^−1 and the singlet oxygen yield [2] is reported as 20%.

In the case of `COc1c2c3c4c(c(NC(CO)C(=O)O)c(=O)c5c(NC(CO)C(=O)O)cc(OC)c(c6c(OC)cc(O)c(c1=O)c63)c54)C=C(C)C2C(C)=O` (stereo not drawn) [HB-23c], the maximum absorption wavelength [1] is reported as 622 nm, the molar extinction coefficient [1] is reported as 22,000 M^−1cm^−1 and the singlet oxygen yield [2] is reported as 22%.

With `COc1c2c3c4c(c(NC(CO)C(=O)O)c(=O)c5c(O)cc(OC)c(c6c(OC)cc(NC(CO)C(=O)O)c(c1=O)c63)c54)C=C(C)C2C(C)=O` (stereo not drawn) [HB-23d] the maximum absorption wavelength [1] was 621 nm, the molar extinction coefficient [1] was 21,500 M^−1cm^−1 and the singlet oxygen yield [2] was 18%.

In the case of `COC(=O)C(CO)Nc1c(NC(CO)C(=O)OC)c2c(=O)cc(OC)c3c4c(OC)cc(=O)c5c(O)c(OC)c6c(c(c1C=C(C)C6C(C)=O)c23)c54` (stereo not drawn) [HB-24a], the maximum absorption wavelength [1] is reported as 625 nm, the molar extinction coefficient [1] is reported as 20,500 M^−1cm^−1 and the singlet oxygen yield [2] is reported as 20%.

With `COC(=O)C(CO)Nc1c(O)c2c(=O)cc(OC)c3c4c(OC)cc(=O)c5c(NC(CO)C(=O)OC)c(OC)c6c(c(c1C=C(C)C6C(C)=O)c23)c54` (stereo not drawn) [HB-24b] the maximum absorption wavelength [1] was 621 nm, the molar extinction coefficient [1] was 21,500 M^−1cm^−1 and the singlet oxygen yield [2] was 20%.

For `COC(=O)C(CO)Nc1c2c3c4c(c(OC)c(=O)c5c(O)cc(OC)c(c6c(OC)cc(NC(CO)C(=O)OC)c(c1=O)c63)c54)C(C(C)=O)C(C)=C2` (stereo not drawn) [HB-24c], the maximum absorption wavelength [1] was 622 nm, the molar extinction coefficient [1] was 21,500 M^−1cm^−1 and the singlet oxygen yield [2] was 22%.

In the case of `COC(=O)C(CO)Nc1c2c3c4c(c(OC)c(=O)c5c(NC(CO)C(=O)OC)cc(OC)c(c6c(OC)cc(O)c(c1=O)c63)c54)C(C(C)=O)C(C)=C2` (stereo not drawn) [HB-24d], the maximum absorption wavelength [1] is reported as 621 nm, the molar extinction coefficient [1] is reported as 20,500 M^−1cm^−1 and the singlet oxygen yield [2] is reported as 20%.

For `COc1c(O)c2c(=O)cc(OC)c3c4c(OC)cc(=O)c5c(NC(CS)C(=O)O)c(NC(CS)C(=O)O)c6c(c(c1C(C(C)=O)C(C)=C6)c23)c54` (stereo not drawn) [HB-25a], the maximum absorption wavelength [1] was 625 nm, the molar extinction coefficient [1] was 21,500 M^−1cm^−1 and the singlet oxygen yield [2] was 18%.

For `COc1c(NC(CS)C(=O)O)c2c(=O)cc(OC)c3c4c(OC)cc(=O)c5c(O)c(NC(CS)C(=O)O)c6c(c(c1C(C(C)=O)C(C)=C6)c23)c54` (stereo not drawn) [HB-25b], the maximum absorption wavelength [1] was 629 nm, the molar extinction coefficient [1] was 20,500 M^−1cm^−1 and the singlet oxygen yield [2] was 20%.

In the case of `COc1c2c3c4c(c(NC(CS)C(=O)O)c(=O)c5c(NC(CS)C(=O)O)cc(OC)c(c6c(OC)cc(O)c(c1=O)c63)c54)C=C(C)C2C(C)=O` (stereo not drawn) [HB-25c], the maximum absorption wavelength [1] is reported as 632 nm, the molar extinction coefficient [1] is reported as 21,500 M^−1cm^−1 and the singlet oxygen yield [2] is reported as 20%.

With `COc1c2c3c4c(c(NC(CS)C(=O)O)c(=O)c5c(O)cc(OC)c(c6c(OC)cc(NC(CS)C(=O)O)c(c1=O)c63)c54)C=C(C)C2C(C)=O` (stereo not drawn) [HB-25d] the maximum absorption wavelength [1] was 630 nm, the molar extinction coefficient [1] was 20,500 M^−1cm^−1 and the singlet oxygen yield [2] was 18%.

For `COc1c(O)c2c(=O)cc(OC)c3c4c(OC)cc(=O)c5c(NC(CC(N)=O)C(=O)O)c(NC(CC(N)=O)C(=O)O)c6c(c(c1C(C(C)=O)C(C)=C6)c23)c54` (stereo not drawn) [HB-26a], the maximum absorption wavelength [1] was 614 nm, the molar extinction coefficient [1] was 20,500 M^−1cm^−1 and the singlet oxygen yield [2] was 20%.

For `COc1c2c3c4c(c(NC(CC(N)=O)C(=O)O)c(=O)c5c(NC(CC(N)=O)C(=O)O)cc(OC)c(c6c(OC)cc(O)c(c1=O)c63)c54)C=C(C)C2C(C)=O` (stereo not drawn) [HB-26c], the maximum absorption wavelength [1] was 614 nm, the molar extinction coefficient [1] was 21,500 M^−1cm^−1 and the singlet oxygen yield [2] was 21%.

With `COc1c2c3c4c(c(NC(CC(N)=O)C(=O)O)c(=O)c5c(O)cc(OC)c(c6c(OC)cc(NC(CC(N)=O)C(=O)O)c(c1=O)c63)c54)C=C(C)C2C(C)=O` (stereo not drawn) [HB-26d] the maximum absorption wavelength [1] was 622 nm, the molar extinction coefficient [1] was 20,500 M^−1cm^−1 and the singlet oxygen yield [2] was 16%.

With `COc1c(O)c2c(=O)cc(OC)c3c4c(OC)cc(=O)c5c(NC(CC(=O)O)C(=O)O)c(NC(CC(=O)O)C(=O)O)c6c(c(c1C(C(C)=O)C(C)=C6)c23)c54` (stereo not drawn) [HB-27a] the maximum absorption wavelength [1] was 621 nm, the molar extinction coefficient [1] was 20,500 M^−1cm^−1 and the singlet oxygen yield [2] was 18%.

For `COc1c2c3c4c(c(NC(CC(=O)O)C(=O)O)c(=O)c5c(NC(CC(=O)O)C(=O)O)cc(OC)c(c6c(OC)cc(O)c(c1=O)c63)c54)C=C(C)C2C(C)=O` (stereo not drawn) [HB-27c], the maximum absorption wavelength [1] was 625 nm, the molar extinction coefficient [1] was 21,500 M^−1cm^−1 and the singlet oxygen yield [2] was 21%.

For `COc1c2c3c4c(c(NC(CC(=O)O)C(=O)O)c(=O)c5c(O)cc(OC)c(c6c(OC)cc(NC(CC(=O)O)C(=O)O)c(c1=O)c63)c54)C=C(C)C2C(C)=O` (stereo not drawn) [HB-27d], the maximum absorption wavelength [1] was 620 nm, the molar extinction coefficient [1] was 21,500 M^−1cm^−1 and the singlet oxygen yield [2] was 18%.

With `COc1c(O)c2c(=O)cc(OC)c3c4c(OC)cc(=O)c5c(NC(CCC(=O)O)C(=O)O)c(NC(CCC(=O)O)C(=O)O)c6c(c(c1C(C(C)=O)C(C)=C6)c23)c54` (stereo not drawn) [HB-28a] the maximum absorption wavelength [1] was 621 nm, the molar extinction coefficient [1] was 20,500 M^−1cm^−1 and the singlet oxygen yield [2] was 18%.

For `COc1c(NC(CCC(=O)O)C(=O)O)c2c(=O)cc(OC)c3c4c(OC)cc(=O)c5c(O)c(NC(CCC(=O)O)C(=O)O)c6c(c(c1C(C(C)=O)C(C)=C6)c23)c54` (stereo not drawn) [HB-28b], the maximum absorption wavelength [1] was 620 nm, the molar extinction coefficient [1] was 21,000 M^−1cm^−1 and the singlet oxygen yield [2] was 19%.

For `COc1c2c3c4c(c(NC(CCC(=O)O)C(=O)O)c(=O)c5c(NC(CCC(=O)O)C(=O)O)cc(OC)c(c6c(OC)cc(O)c(c1=O)c63)c54)C=C(C)C2C(C)=O` (stereo not drawn) [HB-28c], the maximum absorption wavelength [1] was 625 nm, the molar extinction coefficient [1] was 21,500 M^−1cm^−1 and the singlet oxygen yield [2] was 22%.

For `COc1c2c3c4c(c(NC(CCC(=O)O)C(=O)O)c(=O)c5c(O)cc(OC)c(c6c(OC)cc(NC(CCC(=O)O)C(=O)O)c(c1=O)c63)c54)C=C(C)C2C(C)=O` (stereo not drawn) [HB-28d], the maximum absorption wavelength [1] was 620 nm, the molar extinction coefficient [1] was 20,500 M^−1cm^−1 and the singlet oxygen yield [2] was 18%.

With `COCCOCCC(=O)N1CCC(CNc2c(NCC3CCN(C(=O)CCOCCOC)CC3)c3c(=O)c(Br)c(OC)c4c5c(OC)cc(=O)c6c(O)c(OC)c7c(c(c2C=C(C)C7C(C)=O)c34)c65)CC1` (stereo not drawn) [HB-31a-Br-PEG1] the maximum absorption wavelength [1] was 624 nm, the molar extinction coefficient [1] was 32,000 M^−1cm^−1 and the singlet oxygen yield [2] was 33%.
